From patent publication US10947188B2, “Small molecule ferroptosis inducers” (THE TRUSTEES OF COLUMBIA UNIVERSITY IN THE CITY OF NEW YORK, priority 2016, dated 2021)
Blank lines part the entries; values can stand above or below the molecule they belong to.

What was measured:
[1] = system: HT-1080; assay: Modulatory profiling: Alamar Blue viability, lethal compound cotreated with death modulator (EC50, AUC); type: cell-based; set-up: AUC, modulator HT.3MA / AUC, modulator HT.ALLN / AUC HT.ATA / AUC HT.ActD / AUC HT.BHA / AUC HT.BHT / AUC HT.BocD / AUC HT.CHX / AUC HT.Co2+ / AUC HT.DPQ / AUC HT.EGTA / AUC HT.Lmim / AUC HT.NAD+ / AUC HT.Nec-1 / AUC HT.SP600125 / AUC HT.TLCK / AUC HT.U0126: unit not given beside the values; conditions: for AUC HT.ATA: HT-1080, modulator ATA; for AUC HT.ActD: HT-1080, modulator ActD; for AUC HT.BHA: HT-1080, modulator BHA; for AUC HT.BHT: HT-1080, modulator BHT; for AUC HT.BocD: HT-1080, modulator BocD; for AUC HT.CHX: HT-1080, modulator CHX; for AUC HT.Co2+: HT-1080, modulator Co2+; for AUC HT.CspA: HT-1080, modulator CspA; for AUC HT.DPQ: HT-1080, modulator DPQ; for AUC HT.EGTA: HT-1080, modulator EGTA; for AUC HT.Gd3+: HT-1080, modulator Gd3+; for AUC HT.LNAME: HT-1080, modulator LNAME; for AUC HT.Lmim: HT-1080, modulator Lmim; for AUC HT.NAD+: HT-1080, modulator NAD+; for AUC HT.NMMA: HT-1080, modulator NMMA; for HT.atoc (AUC) / HT.bCarotene (AUC) / HT.deferox (AUC) / HT.digoxin (AUC) / HT.trolox (AUC) / HT.zVAD (AUC) / EC50: HT-1080; for HT.atoc (AUC): modulator atoc; for HT.bCarotene (AUC): modulator bCarotene; for HT.deferox (AUC): modulator deferox; for HT.digoxin (AUC): modulator digoxin; for HT.trolox (AUC): modulator trolox; for HT.zVAD (AUC): modulator zVAD; for EC50: Homo sapiens, HT-1080, 48 h, 48 h
[2] = system: HT-1080 cells; assay: Cell viability assay (Alamar Blue), lethal compounds with or without modulators; type: cell-based; conditions: HT-1080 cells; cotreatment
Procedure: 1,000 cells per 36 μl were seeded in each well in 384-well plates. Lethal compounds were dissolved, and a twofold, 12-point dilution series was prepared in DMSO. Compound solutions were further diluted with media at 1:25, and 4 μl per well of the diluted solutions was added to cell cultures immediately after cells were seeded. […] When other cell-death-modulating compounds (100 nM sodium selenite, 1 μM cerivastatin, 100 μg/mL mevalonic acid) were used in cotreatments, they were supplemented to cell culture for 24 h before lethal compounds were added to cell culture, after which cells were further incubated for 24 h at 37° C. under 5% CO2. On the day of the viability measurement, we added 10 μl per well of 50% Alamar Blue diluted in media (Life Technologies) and further incubated the cells at 37° C. for 6 h. Fluorescence intensity (excitation/emission: 530/590) was measured with a Victor 3 plate reader (PerkinElmer), and the normalized viability was calculated as VL=(IL−I0)/(IV−I0), where VL, I0, IV, and IL are the normalized viability and the raw fluorescence intensities from the wells containing media, cells treated with a vehicle (negative control), and cells with the lethal compound (L), respectively. When the effect of a chemical modulator (M) on L was calculated, we instead used the equation VL|M=(IM,L−I0)/(IM,V−I0), where VL|M, IM,L and IM,V are the normalized viability, and fluorescence intensity from cells treated with […], respectively. The viability was typically measured in biological triplicate unless otherwise specified. A representative dose-response curve, the mean and standard error of normalized viability from one replicate were plotted. […]

[3] = system: HT-1080 or BJeLR cells; assay: Analysis of ROS generation (H2-DCFDA flow cytometry); type: cell-based
Procedure: Grew 200,000 HT-1080 or BJeLR cells in six-well plates at 37° C. for 16 h. Cells were treated with test compounds, trypsinized, pelleted, and washed once with PBS. For lipophilic or aqueous ROS detection, cells were re-suspended in Hanks' Balanced Salt Solution (HBSS; Life Technologies) containing test compounds as well as C11-BODIPY(581/591) (2 μM) or H2-DCFDA (25 μM), respectively (Life Technologies), and incubated for 10 min at 37° C. Cells were then pelleted, re-suspended in 500 μL HBSS, strained through a 40-μm cell strainer (BD Falcon), and analyzed using a BD Accuri C6 flow cytometer (BD Biosciences). Both dyes were measured in the FL1 channel. Experiments were done in biological triplicates.

[4] = system: BJeLR; assay: Modulatory profiling: Alamar Blue viability, lethal compound cotreated with death modulator (EC50, AUC); type: cell-based, human; set-up: AUC, modulator BJ.Gd3+ / AUC, modulator BJ.LNAME / AUC, modulator BJ.Lmin / AUC, modulator BJ.3MA / AUC, modulator BJ.ALLN / AUC, modulator BJ.Boc D / AUC, modulator BJ.CHX / AUC, modulator BJ.Co2+ / AUC, modulator BJ.Nec-1 / AUC, modulator BJ.Pepstatin / AUC, modulator BJ.TLCK / AUC, modulator BJ.atoc / AUC, modulator BJ.trolox / AUC, modulator BJ.zVAD: unit not given beside the values; conditions: for AUC, modulator BJ.3MA / AUC, modulator BJ.ALLN / AUC, modulator BJ.Boc D / AUC, modulator BJ.CHX / AUC, modulator BJ.Co2+ / AUC, modulator BJ.DPQ / AUC, modulator BJ.Gd3+ / AUC, modulator BJ.LNAME / AUC, modulator BJ.Lmin/NAD+ / AUC, modulator BJ.Lmin / AUC, modulator BJ.NAD+ / AUC, modulator BJ.NMMA / AUC, modulator BJ.Nec-1 / AUC, modulator BJ.Pepstatin / AUC, modulator BJ.TLCK: BJeLR cells, modulatory profile value (AUC); for AUC, modulator BJ.3MA: lethal compound cotreated with modulator 3MA; for AUC, modulator BJ.ALLN: lethal compound cotreated with modulator ALLN; for AUC, modulator BJ.Boc D: lethal compound cotreated with modulator Boc D; for AUC, modulator BJ.CHX: lethal compound cotreated with modulator CHX; for AUC, modulator BJ.Co2+: lethal compound cotreated with modulator Co2+; for AUC, modulator BJ.DPQ: lethal compound cotreated with modulator DPQ; for AUC, modulator BJ.Gd3+: lethal compound cotreated with modulator Gd3+; for AUC, modulator BJ.LNAME: lethal compound cotreated with modulator LNAME; for AUC, modulator BJ.Lmin/NAD+: lethal compound cotreated with modulator Lmin/NAD+; for AUC, modulator BJ.Lmin: lethal compound cotreated with modulator Lmin; for AUC, modulator BJ.NAD+: lethal compound cotreated with modulator NAD+; for AUC, modulator BJ.NMMA: lethal compound cotreated with modulator NMMA; for AUC, modulator BJ.Nec-1: lethal compound cotreated with modulator Nec-1; for AUC, modulator BJ.Pepstatin: lethal compound cotreated with modulator Pepstatin; for AUC, modulator BJ.TLCK: lethal compound cotreated with modulator TLCK; for EC50: Homo sapiens, BJeLR, 48 h
[5] = system: BJeLR, DRD, BJeHLT, and BJeH; assay: Viability of four engineered BJ cell lines (HRAS G12V selectivity); type: cell-based, human; conditions: 48 h
[6] = Cobalt (II) binding assay in vitro (absorbance spectrum); conditions: absorbance 300-700 nm
Procedure: For each cluster I compound (CIL13, −52, and −64), prepared two-fold dilution series with DMSO. We added 30 μL per well of either water or 10 μM cobalt (II) chloride solution to each well of a 384-well plate. Dilution series of each compound in DMSO were added by 10 μL per well. After solutions had been mixed by shaking of the plate using a Victor 3 plate reader (PerkinElmer), absorbance was scanned between 300 and 700 nm for each compound. Finally the following Absorbance value for each compound was plotted (see FIG. 9B):
[formula] where Abs is the absorbance at each wavelength. Search of Commercially Available Structural Analogs of CIL41/70.

[7] = cotreated with antioxidant Trolox
[8] = cotreated with iron-chelator Lmim

SMILES: N/C(Cc1ccc(Cl)cc1)=N\OC(=O)c1cccc2ccccc12 [CIL70]
AUC HT.ATA [1]: −0.004378 | AUC HT.ActD [1]: −0.02914 | AUC HT.BHA [1]: 0.1062 | AUC HT.BHT [1]: −0.03541 | AUC HT.BocD [1]: −0.03004 | AUC HT.CHX [1]: −0.02631 | AUC HT.Co2+ [1]: 0.01978 | AUC HT.CspA [1]: −0.0468 | AUC HT.DPQ [1]: 0.02696 | AUC HT.EGTA [1]: 0.01851 | AUC HT.Gd3+ [1]: −0.01357 | AUC HT.LNAME [1]: 0.005993 | AUC HT.Lmim [1]: 0.2198 | AUC HT.NAD+ [1]: 0.04321 | AUC HT.NMMA [1]: −0.005818 | HT.atoc (AUC) [1]: 0.2733 | HT.bCarotene (AUC) [1]: −0.001707 | HT.deferox (AUC) [1]: 0.2561 | HT.digoxin (AUC) [1]: −0.1366 | HT.trolox (AUC) [1]: 0.1205 | HT.zVAD (AUC) [1]: 0.002272 | effect of ferroptosis inhibitors (iron chelators and lipophilic antioxidants) on lethality in modulatory profiling ([1]; HT-1080 and BJeLR): suppression by canonical ferroptosis inhibitors | EC50 ([1]; DMSO): 4.44 µM | EC50 ([1]; cotreated with MEK inh U0126): 10.3 µM | EC50 ([1]; cotreated with antioxidant Atoc): 32.2 µM | EC50 ([1]; cotreated with antioxidant BHA): 13.3 µM | EC50 ([1]; cotreated with antioxidant BHT): 6.5 µM | EC50 [1, 7]: 11.1 µM | EC50 ([1]; cotreated with iron-chelator Deferoxamine): 157 µM | EC50 [1, 8]: 47.8 µM | effect of ferroptosis inhibitors (α-tocopherol, deferoxamine) on lethality [2]: strongly suppressed by ferroptosis inhibitors | ROS accumulation detected using H2-DCFDA [3]: induced ROS accumulation | AUC, modulator BJ.3MA [4]: 0.1014 | AUC, modulator BJ.ALLN [4]: −0.07036 | AUC, modulator BJ.Boc D [4]: 0.002412 | AUC, modulator BJ.CHX [4]: 0.1304 | AUC, modulator BJ.Co2+ [4]: −0.0004925 | AUC, modulator BJ.DPQ [4]: 0.02973 | AUC, modulator BJ.Gd3+ [4]: 0.04884 | AUC, modulator BJ.LNAME [4]: −0.006027 | AUC, modulator BJ.Lmin/NAD+ [4]: 0.2633 | AUC, modulator BJ.Lmin [4]: 0.2062 | AUC, modulator BJ.NAD+ [4]: 0.03108 | AUC, modulator BJ.NMMA [4]: −0.008547 | AUC, modulator BJ.Nec-1 [4]: 0.1293 | AUC, modulator BJ.Pepstatin [4]: 0.07715 | AUC, modulator BJ.TLCK [4]: 0.06301 | EC50 ([4]; DMSO): 1.76 µM | EC50 ([4]; cotreated with Lmim_NAD): 14.8 µM | EC50 [4, 7]: 7.1 µM | EC50 ([4]; cotreated with antioxidant atoc): 18.6 µM | EC50 [4, 8]: 13.1 µM | oncogenic RAS selectivity in the BJ engineered cell line series [5]: did not exhibit oncogenic RAS selectivity

binding to cobalt (II) in vitro [6]: bound to cobalt (II) in vitro
SMILES: C(=N\Nc1nc2ccccc2s1)/c1ccccn1 [CIL52]
AUC HT.ATA [1]: 0.03417 | AUC HT.ActD [1]: 0.07379 | AUC HT.BHA [1]: −0.01302 | AUC HT.BHT [1]: −0.06719 | AUC HT.BocD [1]: 0.008582 | AUC HT.CHX [1]: 0.1474 | AUC HT.Co2+ [1]: 0.4155 | AUC HT.CspA [1]: 0.05641 | AUC HT.DPQ [1]: −0.0133 | AUC HT.EGTA [1]: 0.09078 | AUC HT.Gd3+ [1]: −0.006922 | AUC HT.LNAME [1]: −0.009412 | AUC HT.Lmim [1]: 0.02654 | AUC HT.NAD+ [1]: 0.01945 | AUC HT.NMMA [1]: −0.01196 | HT.atoc (AUC) [1]: 0.07146 | HT.bCarotene (AUC) [1]: 0.06784 | HT.deferox (AUC) [1]: 0.2325 | HT.digoxin (AUC) [1]: −0.005506 | HT.trolox (AUC) [1]: −0.03942 | HT.zVAD (AUC) [1]: 0.02339 | effect of cobalt (II) on lethality ([1]; modulatory profiles, CoCl2 supplementation): inhibited by cobalt (II) | AUC, modulator BJ.3MA [4]: 0.0119 | AUC, modulator BJ.ALLN [4]: 0.01092 | AUC, modulator BJ.Boc D [4]: 0.0184 | AUC, modulator BJ.CHX [4]: 0.03724 | AUC, modulator BJ.Co2+ [4]: 0.7978 | AUC, modulator BJ.DPQ [4]: 0.03648 | AUC, modulator BJ.Gd3+ [4]: 0.08327 | AUC, modulator BJ.LNAME [4]: −0.01578 | AUC, modulator BJ.Lmin/NAD+ [4]: 0.08265 | AUC, modulator BJ.Lmin [4]: 0.007783 | AUC, modulator BJ.NAD+ [4]: 0.09321 | AUC, modulator BJ.NMMA [4]: −0.006118 | AUC, modulator BJ.Nec-1 [4]: 0.03888 | AUC, modulator BJ.Pepstatin [4]: 0.02196 | AUC, modulator BJ.TLCK [4]: 0.284
